Source: patent publication US7544497B2, “Compositions for manipulating the lifespan and stress response of cells and organisms” (President and Fellows of Harvard College, priority 2003, dated 2009)

Key:
[1] = target: recombinant GST-Sir2 (Saccharomyces cerevisiae, UniProt P06700); test: Sir2 deacetylation assay; format: biochemical, S. cerevisiae; conditions: in vitro dose-response
Protocol: To investigate whether these compounds could stimulate sirtuins in vivo, we utilized S. cerevisiae, an organism in which the upstream regulators and downstream targets of Sir2 are relatively well understood.
His6-tagged recombinant SIRT1 and GST-tagged recombinant Sir2 were prepared as previously described^26. From 0.1 to 1 μg of SIRT1 and 1.5 μg of Sir2 were used per deacetylation assay (in 50 μl total reaction) as previously described^26. SIRT1 assays and certain of those for Sir2 employed the p53-382 acetylated substrate (‘Fluor de Lys-SIRT1’, BIOMOL) rather than FdL.
Themed compound libraries (BIOMOL) were used for primary and secondary screening. […] For water soluble compounds and negative controls, 1% v/v DMSO was added to the assay. […] HeLa cells were grown and the cellular deacetylation assays were performed and read, as above, but in full-volume 96-well microplates (Corning Costar 3595). […] Calculation of net fluorescence increases included subtraction of a blank value, which in the case of Sir2 was obtained by omitting the enzyme from the reaction and in the case of SIRT1 by adding an inhibitor (200 μM suramin or 1 mM nicotinamide) to the reaction prior to the acetylated substrate. […]

[2] = target: T1, recombinant SIR-2.1 (Caenorhabditis elegans, UniProt Q21921); test: SIR-2.1 deacetylation assay (Fluor de Lys)
T1 sequence (Q21921 1-607): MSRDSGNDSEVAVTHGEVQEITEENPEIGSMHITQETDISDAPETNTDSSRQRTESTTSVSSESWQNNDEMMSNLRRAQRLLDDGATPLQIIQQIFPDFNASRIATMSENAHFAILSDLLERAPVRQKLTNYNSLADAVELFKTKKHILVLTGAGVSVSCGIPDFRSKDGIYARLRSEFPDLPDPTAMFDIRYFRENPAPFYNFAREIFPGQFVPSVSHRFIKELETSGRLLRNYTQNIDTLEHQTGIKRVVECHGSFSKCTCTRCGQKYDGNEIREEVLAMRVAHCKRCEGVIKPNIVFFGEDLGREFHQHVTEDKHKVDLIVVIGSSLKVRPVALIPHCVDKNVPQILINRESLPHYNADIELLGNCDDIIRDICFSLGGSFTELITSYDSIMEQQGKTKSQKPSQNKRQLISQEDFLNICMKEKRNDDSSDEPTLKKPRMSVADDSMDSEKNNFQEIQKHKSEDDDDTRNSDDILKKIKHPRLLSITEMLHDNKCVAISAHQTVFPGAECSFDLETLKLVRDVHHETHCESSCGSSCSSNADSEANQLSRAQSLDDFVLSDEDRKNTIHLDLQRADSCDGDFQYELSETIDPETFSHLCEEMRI

[3] = target: T2, SIRT1 deacetylase (Homo sapiens, UniProt Q96EB6); test: High-throughput SIRT1 screening protocol (384 well); format: biochemical; conditions: 200 μM NAD+, 5 μM Fluor de Lys-SIRT1 substrate; roughly 50 μM
T2 construct: purchased BIOMOL
T2 sequence (Q96EB6 1-747): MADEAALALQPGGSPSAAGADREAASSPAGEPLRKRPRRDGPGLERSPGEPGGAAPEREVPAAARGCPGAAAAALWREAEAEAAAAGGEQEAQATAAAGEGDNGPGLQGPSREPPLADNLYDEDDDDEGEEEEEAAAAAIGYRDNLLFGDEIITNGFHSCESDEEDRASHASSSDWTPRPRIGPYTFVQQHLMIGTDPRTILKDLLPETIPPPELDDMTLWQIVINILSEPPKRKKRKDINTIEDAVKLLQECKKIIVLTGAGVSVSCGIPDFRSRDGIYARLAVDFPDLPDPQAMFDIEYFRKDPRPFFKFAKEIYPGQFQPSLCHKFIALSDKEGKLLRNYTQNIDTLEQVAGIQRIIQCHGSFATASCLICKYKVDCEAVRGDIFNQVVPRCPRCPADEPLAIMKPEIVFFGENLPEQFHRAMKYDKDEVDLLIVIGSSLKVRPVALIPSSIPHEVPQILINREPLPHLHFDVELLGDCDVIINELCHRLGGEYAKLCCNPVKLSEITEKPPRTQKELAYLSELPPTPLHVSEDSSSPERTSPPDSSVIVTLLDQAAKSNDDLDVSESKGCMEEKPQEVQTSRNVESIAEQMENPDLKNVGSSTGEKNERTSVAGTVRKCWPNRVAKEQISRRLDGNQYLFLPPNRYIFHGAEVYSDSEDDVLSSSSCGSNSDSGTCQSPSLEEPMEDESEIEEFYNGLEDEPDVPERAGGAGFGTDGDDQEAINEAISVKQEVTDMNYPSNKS
Protocol: The reaction mixture contains (final): 0.5 units/reaction SIRT1 deacetylase (BIOMOL); 200 μM NAD^+; 5 μM Fluor de Lys-SIRT1 substrate (BIOMOL); buffer (25 mM Tris/Cl, pH 8.0, 137 mM NaCl, 2.7 mM KCl, 1 mM MgCl2, and 1 mg/ml BSA). In addition, a reaction mixture containing no enzyme was made so that each well receiving compound has a corresponding “no enzyme control” well. Reactions were performed in black 384 well plates (NUNC) in a final volume of 25 μl/well.
The reactions were started by combining enzyme and substrate in a reaction mixture immediately prior to aliquoting in plates (or substrate only for “no enzyme control” plates). Mixture were aliquoted to plates using Biotek μFill (Biotek Instruments). Control mixtures were manually added to designated wells. A library compound was added at a desired concentration by pin transfer to both “with enzyme” and “no enzyme” plates. Compounds were added in at least triplicate (with enzyme reaction in duplicate and no enzyme controls) at a final concentration of roughly 50 μM. The plates were incubated at 37° C. for 30-60 minutes. Then 25 μl of 1× Developer II (BIOMOL) plus 2 mM nicotinamide were added to all wells to stop the reactions. The reactions were left for at least 30 minutes at 37° C. for the signal to develop. The plates were read in a microplate-reading fluorometer capable of excitation at a wavelength in the range of 350-380 nm and detection of emitted light in the range of 440-460 nm. A read time of 0.1 sec per well was used.

Chain of recombinant GST-Sir2 (P06700 whole entry): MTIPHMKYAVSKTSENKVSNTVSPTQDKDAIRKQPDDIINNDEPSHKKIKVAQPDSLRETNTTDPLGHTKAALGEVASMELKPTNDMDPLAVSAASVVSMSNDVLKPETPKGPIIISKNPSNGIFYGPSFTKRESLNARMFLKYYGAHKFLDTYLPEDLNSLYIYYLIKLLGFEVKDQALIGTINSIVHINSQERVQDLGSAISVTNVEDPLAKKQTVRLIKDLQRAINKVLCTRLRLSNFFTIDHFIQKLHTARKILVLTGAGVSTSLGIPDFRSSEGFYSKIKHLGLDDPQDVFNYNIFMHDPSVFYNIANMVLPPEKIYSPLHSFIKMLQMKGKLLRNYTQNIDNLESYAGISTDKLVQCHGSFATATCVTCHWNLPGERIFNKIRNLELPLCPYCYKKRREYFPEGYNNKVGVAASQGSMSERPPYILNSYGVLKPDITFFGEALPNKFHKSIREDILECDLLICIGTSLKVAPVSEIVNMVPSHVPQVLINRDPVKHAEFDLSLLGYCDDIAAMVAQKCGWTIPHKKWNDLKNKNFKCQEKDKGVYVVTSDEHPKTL

## Oc1ccc(/C=C/c2cc(O)cc(O)c2)cc1 [Resveratrol, 3,5,4′-Trihydroxy-trans-stilbene]
[1]
  concentrations at which inhibition of Sir2 was seen: greater than 100 μM
[2]; 100 μM resveratrol, 10 μM Fluor de Lys
  effect on Km of SIR-2.1 for NAD+: lowered
[2]; dose-dependent, 200 μM NAD+, 10 μM FdL
  stimulation of deacetylation, SIR-2.1 (up to): up to 2.5 fold
[3]
  activation of SIRT1 (positive controls): 2.2 fold
